Common to all, as to experiment: NCI anticancer screen, dose series, 48 h
Assay [1] relates to MCF7 breast.
Assay [2] relates to PC-3 prostate.
For assay [3], the system named is MDA-MB-435.
Assay [4] concerns HS 578T breast.

SMILES strings stand for the structures.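 In this assay, cells in 96-well plates receive the compound at five concentrations for 48 hours. Endpoints are linearly interpolated between the surrounding concentrations. The concentration for 50% growth inhibition is given as GI50. TGI denotes the concentration required for complete inhibition of growth.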

On to `COc1ccc(/C=C/c2n[nH]c3ccc(N4CCOC4=O)cc23)cc1`, for which the GI50 in assay [1] was 1.93 µM; in assay [2], 3.22 µM; in assay [3], 3.2 µM; in assay [4], 3.23 µM. Also, the TGI in assay [1] amounted to 40.3 µM; in assay [2] it was 11.2 µM; in assay [3], 38.6 µM; in assay [4], 9.59 µM.
For `COC1=CC(c2ccc[nH]2)=N/C1=C\c1[nH]c(C)c(C(=O)CCCCC(=O)Nc2ccccc2)c1C`, the GI50 in assay [1] was 1.37 µM; in assay [2] it was 1.15 µM; in assay [3], 1.79 µM. Also, the TGI in assay [1] is 2.75 µM; in assay [2], 2.43 µM; in assay [3], 3.74 µM.
As for `NS(=O)(=O)c1ccc(N2N=C3c4ccccc4CC3C2c2ccc(Cl)cc2)cc1` (centres undefined), the GI50 is 25 µM in assay [1], 7.17 µM in assay [2], 16.1 µM in assay [3] and 4.61 µM in assay [4]. For the same compound, the TGI came to 59.5 µM in assay [1], 22.6 µM in assay [2], 37.2 µM in assay [3] and 19.2 µM in assay [4].
As for `COc1cc(/C=C2\COc3ccc(O)c(O)c3C2=O)cc(OC)c1`, the GI50 is 1.71 µM in assay [1], 1.61 µM in assay [2], 1.52 µM in assay [3] and 2.66 µM in assay [4]. The TGI was determined as 14.6 µM in assay [1], 7.85 µM in assay [2], 3.98 µM in assay [3] and 17.1 µM in assay [4].
Turning to `NCCNC(=S)S`, the TGI was greater than 100 µM in assay [1], greater than 100 µM in assay [2], greater than 100 µM in assay [3] and 43 µM in assay [4].
Regarding `N#Cc1ccnc(N2C(=O)CC[C@H]2C(=O)N(c2cncc(F)c2)[C@H](C(=O)NC2CC(F)(F)C2)c2ccccc2Cl)c1`, the GI50 is 27 µM in assay [1], greater than 100 µM in assay [2], 64 µM in assay [3] and 99.6 µM in assay [4]. Also, the TGI in assay [1], in assay [2], in assay [3] and in assay [4] was greater than 100 µM in each case.
On to `CCOC(=O)c1sc(Nc2ccc(Cl)cc2)nc1C`, for which the GI50 is 1.64 µM in assay [1], 1.37 µM in assay [2], 2.12 µM in assay [3] and 2.22 µM in assay [4]. Also, the TGI in assay [1] is 6.14 µM; in assay [2] it was 3.42 µM; in assay [3], 4.75 µM; in assay [4], 6.2 µM.
Turning to `CCCCCCCC[N+](C)(CCCCCCCC)CCCCCCCC`, the GI50 in assay [1] is 0.322 µM; in assay [2], 0.24 µM; in assay [3], 0.273 µM; in assay [4], 0.471 µM. Moreover, the TGI was 1.14 µM in assay [1], 1.02 µM in assay [2], 1.01 µM in assay [3] and 2.99 µM in assay [4].
Consider `C[C@@H]1C=C2C(=O)O[C@@H]3CC[C@H](C1)[C@]23O`, for which the GI50 in assay [1] was 2.5 µM; in assay [2], 3.68 µM; in assay [3], 3.39 µM; in assay [4], 12.7 µM. Also, the TGI in assay [1] was 13.3 µM; in assay [2] it was 14.9 µM; in assay [3], 13.7 µM; in assay [4], greater than 100 µM.
For the compound `Cc1[nH]c(=O)[nH]c(=O)c1CO`, the GI50 in assay [1], in assay [2], in assay [3] and in assay [4] was greater than 100 µM throughout. In addition, the TGI in assay [1], in assay [2], in assay [3] and in assay [4] was greater than 100 µM in each case.
On to `Cc1ccc(C)c(-c2csc(Nc3ccc(C)c(C)c3)n2)c1`, for which the GI50 in assay [1] is 35.9 µM; in assay [2], 7 µM; in assay [3] it was greater than 100 µM; in assay [4], 30.6 µM. Also, the TGI in assay [1], in assay [2], in assay [3] and in assay [4] was greater than 100 µM in each case.
With `COC(=O)C1=C(C(=O)OC)C23C=C(C)C1C2=C(C)C1(CC1)[C@@](C)(O)C3=O` (some centres undefined), the GI50 is 0.346 µM in assay [1], 0.386 µM in assay [2] and 1.37 µM in assay [4]. The TGI was greater than 100 µM in assay [1], 32.9 µM in assay [2] and 7.61 µM in assay [4].
Consider `C[C@H]1[C@H](C)CC[C@]2(C(=O)O)CC[C@]3(C)C(=CC[C@@H]4[C@@]5(C)C/C(=C/c6ccco6)C(=O)C(C)(C)[C@@H]5CC[C@]43C)[C@H]12`, for which the GI50 in assay [1] is 3.17 µM; in assay [2], 2.89 µM; in assay [3], 6.58 µM; in assay [4], 11.6 µM. For the same compound, the TGI was 13 µM in assay [1], 13.3 µM in assay [2], 20.4 µM in assay [3] and greater than 100 µM in assay [4].
Take `C=C(C)[C@@H]1CC[C@]2(C)[C@H](CC[C@@H]3[C@H]4[C@H]5OC[C@@]4(CCC5(C)C)CC[C@]32C)[C@@]1(C)CCCN`: the GI50 in assay [1] was 1.57 µM; in assay [2] it was 1.74 µM; in assay [3], 1.76 µM; in assay [4] it was 2.1 µM. Also, the TGI was 3.04 µM in assay [1], 3.29 µM in assay [2], 3.24 µM in assay [3] and 4.61 µM in assay [4].
On to `COc1cc(-c2cc(-c3nc4ccc(Cl)cc4[nH]3)[nH]n2)cc(OC)c1OC`, for which the GI50 is 2.17 µM in assay [1], 2.47 µM in assay [2], 3.3 µM in assay [3] and 3.58 µM in assay [4]. The TGI was 7.75 µM in assay [1], 8.29 µM in assay [2], 12.7 µM in assay [3] and 45.5 µM in assay [4].
Take `NCc1nnn(Cc2ccccc2)c1N`: the TGI in assay [1], in assay [2], in assay [3] and in assay [4] was greater than 100 µM throughout.
Take `COC1=CC(c2ccc[nH]2)=N/C1=C\c1ccc[nH]1`: the GI50 was 0.346 µM in assay [1], 0.158 µM in assay [2], 0.0737 µM in assay [3] and 0.292 µM in assay [4]. Further, the TGI was determined as 11.9 µM in assay [1], 13.6 µM in assay [2], 4.24 µM in assay [3] and 3.56 µM in assay [4].

The values are drawn from PubChem BioAssay (NCI).
